Assays:
[1] = HPLC analysis of interaction between Niclosamide and Cisplatin in vitro; assay type: physicochemical; conditions: ratios 1:1 and 1:10, 37° C.
Protocol: A simple explanation of Niclosamide's protection against CIHL is that it directly inactivates Cisplatin, similar to several otoprotectants in clinical trials (STS, ebselen, etc.). To investigate any possible interaction between Niclosamide and Cisplatin, we developed an HPLC method in vitro. The method may use the following: HPLC: Shimadzu Prominence-i LC-2030C, column: Agilent Eclipse Plus C18, PN-959961-902, 5% ACN, 95% water: 0-2 min; continuous increase of ACN to 95%: 2-12 min; hold at 95% ACN: 12-17 min; continuous decrease of ACN to 5%: 17-20 min, flow rate: 1 mL/min; Temperature 37° C., run time: 20 min. Additional parts of the method may use a stock solution of 1 mg/ml prepared in suitable solvent and mixed to create a ratio of cisplatin and niclosamide at 1:1 and 1:10 in the final injecting solution, along with the pure cisplatin and niclosamide. […] Our in vitro results are consistent with its synergistic interaction with Cisplatin in RCC xenograft models and its protection against noise injury.

SHP77 = assay: Survival of SHP77 cells with or without Cisplatin and Niclosamide; assay type: cell-based; conditions: 10 nM
Protocol: Now referring to FIG. 8, In vitro model of […] incubated with or without Cisplatin and 10 nM of Niclosamide. Cells were maintained in culture with the aid of Matrigel as previously described in Kelley and Driver, Curr. Protoc. Neurosci. Ch.(4); Unit(4); 34.1-10 (2010). After cells had been in culture for 1 d, growth medium DMEM (12430-054; GIB CO Life Technologies, with 1% FBS [16000-044; GIB CO Life Technologies] and 50 μg/ml ampicillin) with or without test compounds may be added for preincubation for 1 hr. at 37° C. in 5% Co2, and may be followed by incubation with 50 μM Cisplatin (479306; Sigma-Aldrich) with or without the test compound in growth medium for 24 hr. at 37° C. A Cisplatin concentration of 50 μM may be used for the explant assay due to its consistent showing of decreases outer hair cells by about −40% in the mouse cochlea after 24 hours. Cochlea may be fixed in 4% PFA and stained for actin with Alex Fluor 568 phalloidin to determine the viability of the HCs. Cochlea may also be stained by DAPI, FM1-43 dye uptake, and immunohistochemical staining for known HC markers (including parvalbumin and myosin 7a. Cochlea may be imaged by confocal microscopy. Two 160-μm regions from middle turns may be photographed, and the number of intact HCs can be counted.

Nrf2 = assay: nrf2a morpholino knock-down zebrafish exposed to cisplatin and niclosamide; assay type: in vivo; conditions: non-injected and scrambled control zebrafish; 18.3 nM, cisplatin 300 μM
Protocol: Additionally to FIGS. 6A-6B, but not shown, 5 dpf zebrafish were incubated for 6 hours with vehicle, niclosamide (2 nM to 1.48 μM) and the nrf2 pathway activator […] (DEM) as a positive control, in order to evaluate the effect of niclosamide on ggcsh, a nrf2 downstream target. Ggcsh was previously validated as a Nrf2 downstream target in zebrafish. (Sheets, 2017). Following incubation, the total RNA was isolated from whole fish and processed to measure the induced expression of nrf2 downstream gene ggcsh. […] Additionally, Nrf2a morpholinos morphlinos were prepared, followed by incubation of the zebrafish morphants with cisplatin and/or niclosamide. Zebrafish eggs were injected with 4.5 ng of scrambled morpholino or nrf2a morpholino (5′-[…] SEQ NO: 1). At 3 dpf non-injected and morphant animals were exposed to vehicle, cisplatin (300 μM), cisplatin+niclosamide 18.3 nM or niclosamide alone for 6 hours. Following 1-hour recovery, animals were fixed and processed for immunohistochemistry. Nrf2a KD was confirmed by analyzing expression of Glutathione S-transferase P1 (gstp1), a downstream target, due to lack of proper antibody to detect Nrf2 protein in zebrafish.

HEI-OC1 cells = assay: Caspase-Glo 3/7 assay in HEI-OC1 cells treated with Cisplatin; assay type: cell-based, mouse
Protocol: Now referring to FIG. 3A, and FIGS. 3D-3E, compounds protect from cisplatin toxicity in the mouse inner ear cell line. House Ear Institute-Organ of Corti 1 (HEI-OC1) cells (House Research Institute) were maintained in high-glucose Dulbecco's modified Eagle medium supplemented with 10% fetal bovine serum (Life Technologies, USA) at 33° C. and 10% CO2 as previously described (Kalinec et al., 2003). Cells were seeded at 8,000 cells/well in 96 well plates and left to attach overnight. Now referring to FIG. 3A, For the drug screening, HEI-OC1 cells were pretreated with 30 drug candidates at concentrations ranging from 2 nM to 40 μM one hour before receiving cisplatin. The cisplatin dose (50 μM) was based on our previously published dose response curve. The cells were co-incubated with cisplatin and drug candidates for an additional 19 hours prior to Caspase-Glo 3/7 assay (Promega, Madison, WI) as previously shown. Additionally, […] kenpaullone-treated cells were used as positive controls to validate our results. The DMSO concentration in drug preparation was adjusted to 0.1% v/v and it was verified that 0.5% DMSO had no effect on the cell death kinetics (Hall et al., 2014). Results of the assay were run in triplicate and normalized to cisplatin-only and media-only controls. The percent caspase activity was used to determine the relative protective effect of each compound. The luminescence detection representing caspase activity in each well was obtained using a Cytation Hybrid Multi-Mode Reader (Biotek, Winooski, VT, USA). The percent protection of the cells was calculated using caspase 3/7 readouts and the following formula: […]
In the following examples, Niclosamide, 5-chloro-N-(2-chloro-4-nitrophenyl)-2-hydroxy-benzamide, with a ≥95% purity was used for all experiments (Cayman Chemical, USA).

O=C(Nc1ccc([N+](=O)[O-])cc1Cl)c1cc(Cl)ccc1O [Niclosamide, 5-chloro-N-(2-chloro-4-nitrophenyl)-2-hydroxy-benzamide]
chemical interaction with Cisplatin (third HPLC peak) [1]: no interaction between Niclosamide and Cisplatin | effect on Cisplatin-tumor killing activity (SHP77): did not affect Cisplatin-tumor killing activity | hair cell number after cotreatment with cisplatin (Nrf2): significantly higher hair cell number | share of the dosage range tested with some level of protection (HEI-OC1 cells; 2 nM to 40 μM tested): over 80% | protection against Cisplatin damage compared to kenpaullone (HEI-OC1 cells; HEI-OC1 cells): comparable levels of protection to kenpaullone | protection compared to sodium thiosulfate, ebselen, dexamethasone, N-acetylcysteine (HEI-OC1 cells; HEI-OC1 cells): better protection than four other benchmark compounds | caspase activity (HEI-OC1 cells; at a dosage of ~4.4 μM, Cisplatin 50 μM): 0% | caspase-3/7 activity relative to control cells (HEI-OC1 cells; dose of 4.4 μM, Cisplatin 50 μM): reduce caspase activity to comparable levels as control cells
